Measurements taken from patent US20240197728A1, “METHODS AND PHARMACEUTICAL COMPOSITIONS FOR TREATING REFRACTORY EPILEPSY” (INSERM (INSTITUT NATIONAL DE LA SANTÉ ET DE LA RECHERCHE …, priority 2021, published 2024).

Biological target: T1, recombinant Flag-tagged KCC2 (Rattus norvegicus, UniProt Q63633)
T1 construct: expressed in transfected cells; host or cells: primary rat hippocampal neurons, transfected at DIV 13-14 with Transfectin
T1 sequence (Q63633 1-1116 isoform Q63633-2): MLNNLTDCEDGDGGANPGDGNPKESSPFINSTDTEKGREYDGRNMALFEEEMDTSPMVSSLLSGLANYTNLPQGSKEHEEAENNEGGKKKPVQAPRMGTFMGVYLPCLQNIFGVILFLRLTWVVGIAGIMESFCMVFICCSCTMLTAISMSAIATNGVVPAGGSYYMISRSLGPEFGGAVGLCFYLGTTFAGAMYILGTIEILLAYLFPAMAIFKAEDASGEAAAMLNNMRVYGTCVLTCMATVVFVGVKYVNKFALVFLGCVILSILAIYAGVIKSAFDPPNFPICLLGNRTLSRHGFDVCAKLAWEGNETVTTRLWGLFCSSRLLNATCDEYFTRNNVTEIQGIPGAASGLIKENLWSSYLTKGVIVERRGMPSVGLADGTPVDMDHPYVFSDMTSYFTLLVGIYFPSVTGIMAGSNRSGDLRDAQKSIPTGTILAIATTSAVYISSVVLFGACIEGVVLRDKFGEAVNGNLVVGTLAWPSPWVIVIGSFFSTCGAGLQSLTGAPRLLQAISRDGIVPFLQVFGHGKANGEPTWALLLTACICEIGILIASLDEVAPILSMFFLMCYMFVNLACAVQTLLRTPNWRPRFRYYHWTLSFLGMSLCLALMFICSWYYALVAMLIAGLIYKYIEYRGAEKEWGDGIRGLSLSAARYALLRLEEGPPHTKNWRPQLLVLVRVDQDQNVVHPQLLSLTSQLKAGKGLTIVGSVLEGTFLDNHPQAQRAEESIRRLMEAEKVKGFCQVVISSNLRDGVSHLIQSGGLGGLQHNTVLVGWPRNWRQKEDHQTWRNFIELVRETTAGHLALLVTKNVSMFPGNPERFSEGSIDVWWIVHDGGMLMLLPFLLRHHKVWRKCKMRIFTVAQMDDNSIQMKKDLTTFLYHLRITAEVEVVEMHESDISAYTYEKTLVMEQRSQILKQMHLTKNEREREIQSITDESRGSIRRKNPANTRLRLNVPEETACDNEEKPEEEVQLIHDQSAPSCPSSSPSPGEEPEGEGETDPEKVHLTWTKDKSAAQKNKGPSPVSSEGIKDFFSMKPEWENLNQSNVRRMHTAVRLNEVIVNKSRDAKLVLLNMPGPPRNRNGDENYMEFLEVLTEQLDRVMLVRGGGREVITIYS
Assay: Quantum dot-based single particle tracking of KCC2 membrane lateral diffusion
Format: cell-based
Settings: vs DMSO
Protocol: For all experiments on hippocampal cultures, neurons were pre-incubated for 2 hours with either DMSO, PCPZ or CLP257 in a CO2 incubator set at 37° C. Drugs were added directly to the culture medium. For electrophysiology experiments, neurons were also recorded in presence of these drugs in the bath. For biochemistry experiments on rat hippocampo-cortical slices, slices were incubated with either DMSO (vehicle), CLP257, PCPZ, WNK463 or sodium orthovanadate for 2 hours in interface chambers set at 37° C. For human tissue experiments, slices were pre-incubated with either DMSO, CLP257 or PCPZ for 2 hours in interface chambers set at 37° C. and then also recorded in presence of these compounds.
For single-particle-tracking experiments, a previously described KCC2-Flag construct was used. […] All constructs were sequenced by Beckman Coulter Genomics (Hope End, Takeley, U.K). Neuronal transfections were performed at DIV 13-14 using Transfectin (BioRad), according to manufacturer's instructions (DNA:transfectin ratio 1 μg:3 μl), with 1-1.5 μg of plasmid DNA per 20 mm well. Experiments were performed 7-10 days post-transfection.
Neurons were stained as previously described. Briefly, cells were incubated for 6 min at 37° C. with a mouse anti-Flag antibody (mouse, 1:300, Sigma-Aldrich), washed and incubated for 6 min at 37° C. with a biotinylated Fab goat anti-mouse antibody (1:300; Jackson Immuno Research) in imaging medium. After washes, cells were incubated for 1 min with streptavidin-coated quantum dots (QDs) emitting at 655 nm (1 nM; Invitrogen) supplemented with PBS ([…]; Invitrogen) and 10% Casein (v/v) (Sigma).
Cells were imaged using an Olympus IX71 inverted microscope equipped with a 60× objective (NA 1.42; Olympus) and a 120 W Mercury lamp (X-Cite 120Q, Lumen Dynamics). QD real time recordings (integration time of 30 ms over 1200 consecutive frames) were acquired with an ImagEM EMCCD camera and MetaView software (Meta Imaging 7.7). Cells were imaged within 45 min following appropriate drugs pre-incubation.
QD tracking and trajectory reconstruction were performed with homemade Matlab routines, as described. For each imaged neuron, one or two dendritic subregions were quantified. Mean square displacement (MSD) over time plots were calculated as described and diffusion coefficients (D) were calculated by fitting the first four points without origin of the MSD vs. time curves with the equation: MSD(nτ)=4Dnτ+b, where b is a constant reflecting the spot localization accuracy. The explored area of each trajectory was defined as the MSD value of the trajectory at two different time intervals of at 0.42 and 0.45 s.

SMILES	change of KCC2 diffusion coefficient, extrasynaptic (100 μM CLP257, 2 h)	change of KCC2 diffusion coefficient, synaptic (100 μM CLP257, 2 h)	change of KCC2 explored area, extrasynaptic (100 μM CLP257, 2 h)	change of KCC2 explored area, synaptic (100 μM CLP257, 2 h)	change of KCC2 diffusion coefficient, extrasynaptic (10 μM PCPZ, 2 h)	change of KCC2 diffusion coefficient, synaptic (10 μM PCPZ, 2 h)	change of KCC2 explored area, extrasynaptic (10 μM PCPZ, 2 h)	change of KCC2 explored area, synaptic (10 μM PCPZ, 2 h)
O=C1N=C(N2CCCCN2)S/C1=C\c1ccc(F)cc1O [CLP257, (5Z)-5-[(4-Fluoro-2-hydroxyphenyl)methylene]-2-(tetrahydro-1-(2H)-pyridazinyl)-4(5H)-thiazolone]	−20.74±4.85%	+9.39±11.21%	−25.14±2.73%	+4.93±19.40%				
CN1CCN(CCCN2c3ccccc3Sc3ccc(Cl)cc32)CC1 [PCPZ, prochlorperazine]					−36.54±14.91%	−26.22±14.00%	−39.70±17.18%	−30.632±25.44%
